Assay results published in patent US6639023B1, “Fluorophenyl resin compounds” (Aventis Pharmaceuticals Inc., priority 1998, dated 2003).

Biological target: Factor Xa (Homo sapiens, UniProt P00742)
Experiment: IC50 against Factor Xa
Format: biochemical

Factor Xa, sequence (P00742 235-488 limits assumed): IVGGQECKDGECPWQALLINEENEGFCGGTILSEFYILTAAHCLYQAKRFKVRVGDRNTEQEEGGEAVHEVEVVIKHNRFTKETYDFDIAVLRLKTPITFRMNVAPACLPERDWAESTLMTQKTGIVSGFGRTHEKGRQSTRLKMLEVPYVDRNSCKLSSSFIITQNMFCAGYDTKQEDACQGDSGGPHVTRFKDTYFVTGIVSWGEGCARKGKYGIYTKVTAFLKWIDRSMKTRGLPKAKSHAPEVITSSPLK
Factor Xa, sequence (P00742 41-179 partner limits assumed): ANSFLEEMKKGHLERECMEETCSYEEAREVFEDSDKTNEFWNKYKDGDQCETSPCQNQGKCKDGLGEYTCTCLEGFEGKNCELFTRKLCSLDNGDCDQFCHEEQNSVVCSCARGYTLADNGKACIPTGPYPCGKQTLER

IC50: < 500 nM
SMILES: O=C1[C@@H](NS(=O)(=O)c2cc3ccc(Cl)cc3s2)CCN1Cc1cc2ncccc2[nH]1 [Example 24]
